The nature of test [1]: Inhibition of Trypanosoma brucei recombinant MBP-fused GSK-3 short isoform expressed in Escherichia coli by scintillation proximity assay.
For test [2], the system named is Trypanosoma brucei. The test is described as follows: microbe, parasite or virus in culture. To be noted: Trypanosoma brucei, 427, 48 h. Format: functional, organism-based.
Description: Antitrypanosomal activity against blood stream form of Trypanosoma brucei 427 assessed as growth inhibition after 48 hrs by alamar blue assay

Molecules are shown by their SMILES.

For `O=C1Nc2ccc3ncsc3c2/C1=C/Nc1ccc(S(=O)(=O)Nc2ccccn2)cc1`, the half-inhibitory concentration (IC50) in test [1] was 1 nM. Besides, a half-maximal response in test [2] (EC50) required 119 nM.

For the compound `O=C1NC(=O)C(c2ccccc2[N+](=O)[O-])=C1Nc1ccc(O)c(Cl)c1`, the concentration for half-maximal inhibition (IC50) in test [1] came out at 1000 nM. In test [2], this compound returned an EC50 of 740 nM.

As for `CC(C)(C)C1=CS/C(=C(\C#N)c2ccnc(NCCCCN3C(=O)CCC3=O)n2)N1`, in test [1], the IC50 was 168 nM. This compound also gave an EC50 in test [2] of 705 nM.

On to `CN1CCC(C(=O)Nc2nccc(/C(C#N)=C3\NC(C(C)(C)C)=CS3)n2)CC1`, for which, in test [1], the half-maximal inhibitory concentration (IC50) turned out to be 30 nM. Besides, a half-maximal response in test [2] (EC50) required 65 nM.

Turning to `CC(=O)N1CCC(C(=O)Nc2nccc(/C(C#N)=C3\NC(C(C)(C)C)=CS3)n2)CC1`, the half-maximal inhibitory concentration (IC50) in test [1] was found to be 22 nM. Besides, in test [2], the concentration for a half-maximal effect (EC50) was found to be 410 nM.

Consider `COc1ccc2c(c1)/C(=C/c1cnc[nH]1)C(=O)N2` [SU-9516], for which the IC50 in test [1] came out at 352 nM. Also, the EC50 in test [2] amounted to 180 nM.

On to `CC(C)(C)C1=CS/C(=C(\C#N)c2ccnc(NC(=O)C3CCNCC3)n2)N1`, for which, in test [1], the IC50 came to 46 nM. In test [2], this compound yielded an EC50 of 200 nM.

In the case of `CN(C)CC(=O)N1CCC(C(=O)Nc2nccc(/C(C#N)=C3\NC(C(C)(C)C)=CS3)n2)CC1`, in test [1], the IC50 came out at 30 nM. Further, in test [2], the EC50 was 458 nM.

As to `N#CCCc1ccc2c(c1)-c1[nH]c3ccc([N+](=O)[O-])cc3c1CC(=O)N2` [ALSTERPAULLONE 2], the IC50 in test [1] is 336 nM. Besides, a half-maximal response in test [2] (EC50) required 150 nM.

In the case of `Nc1nc(Nc2cccc(S(N)(=O)=O)c2)nn1C(=S)Nc1c(F)cccc1F`, the 50% inhibitory concentration (IC50) in test [1] is 13 nM. In test [2], this compound had an EC50 of 20 nM.

In the case of `CN(C)CCCC(=O)Nc1nccc(/C(C#N)=C2\NC(C(C)(C)C)=CS2)n1`, in test [1], the IC50 is 4 nM. The response in test [2] was half-maximal at 50 nM (EC50).

For orientation: IC50 means the concentration that gives 50% inhibition. In general, EC50 refers to the concentration needed to bring the measured effect to its halfway point. Higher therefore signals a need for much substance.

Values taken from ChEMBL document CHEMBL1275499, “Glycogen synthase kinase 3 is a potential drug target for African trypanosomiasis therapy” (Antimicrob Agents Chemother, 2008).
